Reference: patent publication US20260240802A1, “USE OF MYRIOCIN AS ADJUVANT IN GLAUCOMA SURGERY” (priority 2023, published 2026)
Entries after “also recorded” stand apart in the source; their conditions may differ. Where two headings read alike, the source gives them in different places.

What was measured:
[1] = system: human dermic fibroblasts; assay: Scratch test assay; type: cell-based
Method: (§1) The fibroblasts, cultivated in culture medium DMEM (EuroClone) additioned with 10% of Fetal Bovine Serum (EuroClone) and 1% of penicillin/streptomycin (Sigma-Aldrich), were kept in incubator at 37° C., 5% of CO2 until reaching the full confluence which corresponds approximately to 1.2-1.3*10^6 cells. After detachment from the culture flasks (T75) with a solution of trypsin/EDTA, 1.5-2.5*10^5 or 4.0*10^5 fibroblasts were respectively plated in 60-mm or 100-mm wide Petri dishes for the subsequent treatments.
In six-well plates, 150,000 fibroblasts/well were plated and left to proliferate until reaching a confluence of 80-90%. At this point, defined time zero (T0), the cellular monolayer is damaged by creating a vertical groove corresponding to the well diameter.

[2] = system: human dermic fibroblasts; type: cell-based; conditions: for total cells after 24 hours of treatment: human
Method: as §1
The fibroblasts, cultivated in ninety-six-well plates, were divided into the experimental groups: ctr, Mito and Myr. 24 hours after sowing (T0), the controls were collected for counting the live and dead cells and one proceeded with the treatment of the groups Mito and Myr for the subsequent 24 hours, with the respective substances. After detachment with a solution of trypsin/EDTA, the fibroblasts were isolated by centrifugation (100 g×6 minutes) and the obtained precipitate was resuspended in phosphate buffer. To the cellular suspension, 10% of 0.4% Trypan Blue dye solution was added. The live cells and the dead cells, coloured blue for the intracellular permeation of the dye through the damaged plasmatic membrane, are counted by using Bürker camera (Fabiani C., et al., Naunyn-Schmiedebergs Arch. Pharmacol. 2017; 390:741-751).

[3] = system: postoperative fibrosis; conditions: after 5 years, mitomycin C in intraoperative therapy (before: 24-74% after 4 years); cited from earlier work
[4] = system: fibroblasts; conditions: Josamycin 69.4 μg/ml (JM69.4); cited from earlier work
[5] = system: human dermic fibroblasts; type: cell-based; conditions: fibroblasts activated with TGFβ, compared with mitomycin C
Method: The anti-fibrotic activity of myriocin, compared to that of mitomycin C, was evaluated in vitro by using human dermic fibroblasts of healthy subjects, available commercially.
as §1
The cells were divided into six experimental groups: • 1. control group without treatment (denominated ctr) • 2. group treated with TGFβ (denominated TGFβ) • 3. group treated with Myriocin and TGFβ (denominated Myr/TGFβ) • 4. group treated with Mitomycin C and TGFβ (denominated Mito/TGFβ) • 5. group treated with Myriocin (denominated Myr) • 6. group treated with Mitomycin C (denominated Mito)
On the day of treatment, in groups ctr, TGFβ, Myr, Myr/TGFβ the culture medium was replaced by fresh medium. The groups Myr and Myr/TGFβ were pretreated for 1 hour with myriocin 5 mM (Sigma-Aldrich) so as to obtain a final concentration of 50 μM. […]

[6] = system: fibroblasts; assay: proliferation/vitality MTT assay; type: cell-based; conditions: 24 hours, Myriocin 50 μM, not treated fibroblasts = 100%
Method: These proliferation data result to be an improvement with respect to those obtained by the authors with JM47.2, which is equivalent to a concentration of approximately 56 μM, not considered among the effective concentrations in anti-fibrotic sense.

[7] = system: CTGF (Connective Tissue Growth Factor); assay: RT-PCR expression of transcript CTGF in fibroblasts; type: cell-based, human; conditions: myriocin 50 μM 1 hour pretreatment + 24 hours with TGFβ 5 ng/ml
Method: (§2) Expression of the transcript (mRNA) of αSMA, CTGF, MMP-9 evaluated by RT-PCR, in fibroblasts: control (ctr); stimulated with TGFβ (TGFβ); pretreated 1 hour with Myriocin and for the subsequent 24 hours in combination with TGFβ (Myr/TGFβ); pretreated 5 minutes with Mitomycin C, washed and treated for the subsequent 24 hours with TGFβ (Mito/TGFβ); pretreated 1 hour with Myriocin and for the subsequent 24 hours with Myriocin (Myr); pretreated 5 minutes with Mitomycin C, washed and for the subsequent 24 hours with culture medium (Mito). The results represent the average±standard error of 5 experiments and they are represented as variation with respect to the control (ratio between the expression in the various groups and the control). The control is set equal to 1 and designated in figure with the dotted line. […]
(§3) The following transcripts of interest were analysed: • αSMA (α Smooth Muscle Actin): marker of the activation of the fibroblasts to miofibroblasts; • CTGF (Connective Tissue Growth Factor): protein of the extracellular matrix with pro-fibrotic activity; • MMP-9 (Matrix metalloproteinase 9): enzyme which degrades the proteins of the extracellular matrix.

[8] = molecular target: T1, serine-palmitoyl transferase (Homo sapiens, UniProt O15269+O15270); assay: mass spectrometry of the ceramide content of fibroblasts; type: cell-based; conditions: myriocin 50 μM
T1 construct: the fibroblasts were isolated by centrifugation; endogenous in cells
T1 sequence (O15269 1-473): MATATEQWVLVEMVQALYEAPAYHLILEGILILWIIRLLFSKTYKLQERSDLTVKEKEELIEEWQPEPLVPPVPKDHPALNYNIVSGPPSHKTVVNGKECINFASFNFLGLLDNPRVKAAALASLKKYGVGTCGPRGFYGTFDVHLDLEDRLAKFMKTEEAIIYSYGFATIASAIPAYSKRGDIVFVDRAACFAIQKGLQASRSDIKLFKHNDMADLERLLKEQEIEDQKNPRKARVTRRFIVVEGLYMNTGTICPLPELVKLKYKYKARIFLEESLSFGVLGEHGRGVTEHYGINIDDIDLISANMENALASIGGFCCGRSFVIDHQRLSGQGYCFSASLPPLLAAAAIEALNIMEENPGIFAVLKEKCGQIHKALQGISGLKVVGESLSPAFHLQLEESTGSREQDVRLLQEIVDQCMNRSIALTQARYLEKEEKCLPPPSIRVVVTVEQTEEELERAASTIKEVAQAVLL
T1 sequence (O15270 1-562): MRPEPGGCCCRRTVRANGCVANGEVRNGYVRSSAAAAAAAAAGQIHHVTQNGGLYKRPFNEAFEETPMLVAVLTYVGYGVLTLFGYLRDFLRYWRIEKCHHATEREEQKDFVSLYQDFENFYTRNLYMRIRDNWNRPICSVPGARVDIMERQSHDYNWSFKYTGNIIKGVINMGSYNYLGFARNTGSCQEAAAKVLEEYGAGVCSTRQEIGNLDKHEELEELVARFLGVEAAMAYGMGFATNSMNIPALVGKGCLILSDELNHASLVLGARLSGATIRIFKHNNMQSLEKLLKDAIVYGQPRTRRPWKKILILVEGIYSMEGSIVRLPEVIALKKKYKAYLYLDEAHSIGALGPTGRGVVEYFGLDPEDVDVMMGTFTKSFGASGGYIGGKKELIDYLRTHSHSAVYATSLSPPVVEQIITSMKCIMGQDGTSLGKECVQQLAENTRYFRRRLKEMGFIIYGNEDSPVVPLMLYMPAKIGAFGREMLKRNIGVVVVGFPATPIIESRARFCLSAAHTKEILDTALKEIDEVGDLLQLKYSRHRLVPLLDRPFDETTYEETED
T1 sequence (Q969W0 1-71 partner): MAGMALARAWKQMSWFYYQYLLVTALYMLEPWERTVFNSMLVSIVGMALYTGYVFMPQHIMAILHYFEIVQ
Method: On the day of treatment, in groups ctr, TGFβ, Myr, Myr/TGFβ the culture medium was replaced by fresh medium. The groups Myr and Myr/TGFβ were pretreated for 1 hour with myriocin 5 mM (Sigma-Aldrich) so as to obtain a final concentration of 50 μM. […] The pretreatment with mitomycin C, lasting 5 minutes to simulate the administration time in the operating room of the drug on the patient suffering from glaucoma, was interrupted by two washes, each one lasting 2 minutes, with phosphate buffer (PBS). To the groups TGFβ, Myr/TGFβ and Mito/TGFβ, TGFβ 200 ng/ml is then added to obtain a final concentration of 5 ng/ml, as reported in literature (Wu N. et al., Mol Cell Biochem. 2020; 470:175-188). The fibroblasts were then put in incubator for 24 hours, until performing the different analyses.
After detachment with a solution of trypsin/EDTA, the fibroblasts were isolated by centrifugation (100 g×6 minutes). The obtained precipitate was resuspended in phosphate buffer (PBS), centrifuged at 100 g×6 minutes, resuspended again in phosphate buffer (PBS) and centrifuged at 500 g×5 minutes at 4° C. The precipitate was resuspended in 100 μl of PBS containing a mixture of protease inhibitors (Protease Inhibitor Cocktails, EDTA-free, Roche) and kept at −20° C. until use. The extraction of the lipids and the analysis of the samples for evaluating the ceramide content, whose synthesis is locked by inhibiting the enzyme serine-palmitoyl transferase by Myr, follow published protocols (Morano C. et al., Metabolites. 2022; 12 (5): 450).

[9] = system: collagen; assay: transcription and translation of collagen in fibroblasts (FIG. 4); type: cell-based; conditions: pre-treated 1 hour with Myriocin 50 µM, then 24 hours in combination with TGFβ 5 ng/ml
Method: FIG. 4: Ctrl: not treated fibroblasts; TGFβ: fibroblasts treated 24 hours with TGFβ 5 ng/ml; TGFβ/Myr: fibroblasts pre-treated 1 hour with Myriocin 50 µM and for subsequent 24 hours in combination with TGFβ 5 ng/ml; TGFβ/Mito: fibroblasts pre-treated 5 minutes with Mitomycin 50 µM, and for subsequent 24 hours with TGFβ 5 ng/ml in absence of Mitomycin.

[10] = system: MMP-9 (Matrix metalloproteinase 9); assay: RT-PCR expression of transcript MMP-9 in fibroblasts; type: cell-based, human; conditions: myriocin 50 μM 1 hour pretreatment + 24 hours with TGFβ 5 ng/ml
Method: as §2, §3

[11] = system: αSMA (α Smooth Muscle Actin); assay: RT-PCR expression of transcript αSMA in fibroblasts; type: cell-based, human; conditions: myriocin 50 μM 1 hour pretreatment + 24 hours with TGFβ 5 ng/ml
Method: as §2, §3

SMILES: CO[C@@]12[C@H](COC(N)=O)C3=C(C(=O)C(C)=C(N)C3=O)N1C[C@@H]1N[C@@H]12 [Mitomycin C]
- cellular death ([1]; 50 μM, 24 and 48 hours): induced a progressive cellular death
- migration of fibroblasts after damage of the cellular carpet ([1]; 50 μM, 24 and 48 hours, listed as Mitomycin): migrate only partially
- migration of fibroblasts after damage of the cellular carpet ([1]; 50 μM, 24 and 48 hours, listed as mitomycin C): reduced the migration of fibroblasts
- morphological change of fibroblasts ([1]; between T1 (24 hours) and T2 (48 hours)): progressive morphological change (from tapering to rounded)
- change of total cells after 24 hours [2]: halved
- total cells after 24 hours of treatment [2]: 5466 total cells/well
- percentage of failure of the surgical therapy [3]: 23-51%

SMILES: CO[C@@H]1[C@@H](O[C@@H]2O[C@H](C)[C@@H](O[C@H]3C[C@@](C)(O)[C@@H](OC(=O)CC(C)C)[C@H](C)O3)[C@H](N(C)C)[C@H]2O)[C@@H](CC=O)C[C@@H](C)[C@@H](O)/C=C/C=C/C[C@@H](C)OC(=O)C[C@H]1OC(C)=O [Josamycin]
- proliferation percentage of the fibroblasts [4]: less than 50%

SMILES: CCCCCCC(=O)CCCCCC/C=C/C[C@@H](O)[C@H](O)[C@@](N)(CO)C(=O)O [Myriocin]
- anti-fibrotic efficacy [5]: comparable to mitomycin C
- anti-fibrotic efficacy ([5]; listed as myriocin): comparable to that of the drug mitomycin C
- % proliferation (relative proliferation/vitality index) [6]: higher than 60%
- % proliferation (relative proliferation/vitality index) ([6]; listed as MYR): 62%
- reduction of CTGF transcript expression increase induced by TGFβ [7]: more effective than mitomycin C
- reduction of ceramide level with respect to basal ctr ([8]; Myr group vs ctr): about 15%
- reduction of dihydroceramide level with respect to basal ctr ([8]; Myr group vs ctr): ~25%
- reduction of ceramide level with respect to the group stimulated with TGFβ ([8]; Myr/TGFβ vs TGFβ, TGFβ 5 ng/ml): ~50%
- reduction of dihydroceramide level with respect to the group stimulated with TGFβ ([8]; Myr/TGFβ vs TGFβ, TGFβ 5 ng/ml): ~60%
- transcription (panel A) and translation (panel B) of collagen [9]: capable of controlling the transcription (panel A) and the translation (panel B) of collagen
- reduction of MMP-9 transcript expression increase induced by TGFβ [10]: more effective than mitomycin C; also recorded: reducing the expression of MMP-9
- migration of fibroblasts after damage of the cellular carpet ([1]; 50 μM, 24 and 48 hours): migrate only partially
- migration of fibroblasts after damage of the cellular carpet ([1]; 50 μM, 24 and 48 hours, listed as myriocin): reduced the migration of fibroblasts
- increase of total cells after 24 hours ([2]; after 24 hours vs T0): about 70%
- total cells after 24 hours of treatment [2]: 11733 total cells/well
- reduction of αSMA transcript expression increase induced by TGFβ [11]: more effective than mitomycin C; also recorded: reduces the expression of αSMA
